Results: US8796296B2, “Aminopyrimidine derivatives as LRRK2 modulators” (Genentech, Inc., priority 2011, dated 2014)

Target: LRRK2 (Homo sapiens (Human), UniProt Q5S007, G2019S)
Experiment: In Vitro LRRK2 LabChip Assay (LRRK2 Ki)
Assay type: biochemical
Protocol: In Vitro LRRK2 LabChip Assay
This assay was used to determine a compound's potency in inhibiting activity of LRRK2 by determining, Kiapp, IC50, or percent inhibition values. In a polypropylene plate, LRRK2, fluorescently-labeled peptide substrate, ATP and test compound were incubated together. Using a LabChip 3000 (Caliper Life Sciences), after the reaction the substrate was separated by capillary electrophoresis into two populations: phosphorylated and unphosphorylated. The relative amounts of each were quantitated by fluorescence intensity. LRRK2 Ki was determined according to the equation: Y=V0*(1−((x+Ki*(1+S/Km)+Et)/(2*Et)−(((x+Ki*(1+S/Km)+Et)^2−(4*Et*x))^0.5)/(2*Et))). Ki values in Table 4 and elsewhere herein are shown in μM.
Assay conditions and materials used were as follows:
LRRK2 Wild type in 5 mM MgCl2: 15 nM (Invitrogen lot #500607F)
Kinase reaction time: 2 hours
Wild type in 5 mM MgCl2: 80 μM
Kinase: LRRK2 G2019S (Invitrogen cat #PV4882). • LRRK2 Wild type (Invitrogen cat #PV4874).
Substrate: 5FAM-GAGRLGRDKYKTLRQIRQ-CONH2
Complete Reaction Buffer: H2O/25 mM Tris, pH 8.0/5 mM MgCl2/2 mM DTT/0.01% Triton X-100.
For serial dilutions, 34.6 μl DMSO was added to columns 3-24. For the assay controls, 37.5 μl DMSO was added to columns 1 and 2 of rows A and P. a,d and 50 μl 25 μM G-028831 (Staurosporine) was added to columns 1 and 2, row B. For the samples: to start at 100 μM, 37.5 μl DMSO was to columns 1 and 2, then 12.5 μl 10 mM compound; to start at 10 μM, 78 μl DMSO was added to columns 1 & 2, then 2 μl 10 mM compound; and to start at 1 μM, 25 μM compound (2 μl 10 mM cmpd+798 μl DMSO) was added to empty columns 1 and 2. A Precision instrument was used to perform 1:3.16 serial dilutions (“PLK_BM_serial_halflog”).
ATP was diluted to 282.1 μM in Complete Kinase Buffer (final concentration was 130 μM).
In Complete Reaction Buffer, substrate was diluted to 4 μM. Equal volumes of Complete Reaction Buffer and 4 μM substrate were combined to obtain the blank. Equal volumes of Complete Reaction Buffer and 4 μM substrate were combined and to the combined solution was added 2× final LRRK2 concentration.
To a 50 μl polypropylene plate, 5 μl/well buffer/substrate was added by hand to Blank wells. A Biomek FX was used to start the kinase reaction (“PLK SAR 23 ATP”). The following were added to the appropriate wells:
The plate was incubated for 2 hours in the dark. Biomek FX was used to stop the kinase reaction (“PLK Stop”), and 10 μl/well Stop solution was added to the Assay Plate.
Results were read on the LabChip 3000.
The LabChip 3000 was run using the job “LRRK2 IC50” with the following job settings: […]

LRRK2, sequence (Q5S007 whole entry G2019S): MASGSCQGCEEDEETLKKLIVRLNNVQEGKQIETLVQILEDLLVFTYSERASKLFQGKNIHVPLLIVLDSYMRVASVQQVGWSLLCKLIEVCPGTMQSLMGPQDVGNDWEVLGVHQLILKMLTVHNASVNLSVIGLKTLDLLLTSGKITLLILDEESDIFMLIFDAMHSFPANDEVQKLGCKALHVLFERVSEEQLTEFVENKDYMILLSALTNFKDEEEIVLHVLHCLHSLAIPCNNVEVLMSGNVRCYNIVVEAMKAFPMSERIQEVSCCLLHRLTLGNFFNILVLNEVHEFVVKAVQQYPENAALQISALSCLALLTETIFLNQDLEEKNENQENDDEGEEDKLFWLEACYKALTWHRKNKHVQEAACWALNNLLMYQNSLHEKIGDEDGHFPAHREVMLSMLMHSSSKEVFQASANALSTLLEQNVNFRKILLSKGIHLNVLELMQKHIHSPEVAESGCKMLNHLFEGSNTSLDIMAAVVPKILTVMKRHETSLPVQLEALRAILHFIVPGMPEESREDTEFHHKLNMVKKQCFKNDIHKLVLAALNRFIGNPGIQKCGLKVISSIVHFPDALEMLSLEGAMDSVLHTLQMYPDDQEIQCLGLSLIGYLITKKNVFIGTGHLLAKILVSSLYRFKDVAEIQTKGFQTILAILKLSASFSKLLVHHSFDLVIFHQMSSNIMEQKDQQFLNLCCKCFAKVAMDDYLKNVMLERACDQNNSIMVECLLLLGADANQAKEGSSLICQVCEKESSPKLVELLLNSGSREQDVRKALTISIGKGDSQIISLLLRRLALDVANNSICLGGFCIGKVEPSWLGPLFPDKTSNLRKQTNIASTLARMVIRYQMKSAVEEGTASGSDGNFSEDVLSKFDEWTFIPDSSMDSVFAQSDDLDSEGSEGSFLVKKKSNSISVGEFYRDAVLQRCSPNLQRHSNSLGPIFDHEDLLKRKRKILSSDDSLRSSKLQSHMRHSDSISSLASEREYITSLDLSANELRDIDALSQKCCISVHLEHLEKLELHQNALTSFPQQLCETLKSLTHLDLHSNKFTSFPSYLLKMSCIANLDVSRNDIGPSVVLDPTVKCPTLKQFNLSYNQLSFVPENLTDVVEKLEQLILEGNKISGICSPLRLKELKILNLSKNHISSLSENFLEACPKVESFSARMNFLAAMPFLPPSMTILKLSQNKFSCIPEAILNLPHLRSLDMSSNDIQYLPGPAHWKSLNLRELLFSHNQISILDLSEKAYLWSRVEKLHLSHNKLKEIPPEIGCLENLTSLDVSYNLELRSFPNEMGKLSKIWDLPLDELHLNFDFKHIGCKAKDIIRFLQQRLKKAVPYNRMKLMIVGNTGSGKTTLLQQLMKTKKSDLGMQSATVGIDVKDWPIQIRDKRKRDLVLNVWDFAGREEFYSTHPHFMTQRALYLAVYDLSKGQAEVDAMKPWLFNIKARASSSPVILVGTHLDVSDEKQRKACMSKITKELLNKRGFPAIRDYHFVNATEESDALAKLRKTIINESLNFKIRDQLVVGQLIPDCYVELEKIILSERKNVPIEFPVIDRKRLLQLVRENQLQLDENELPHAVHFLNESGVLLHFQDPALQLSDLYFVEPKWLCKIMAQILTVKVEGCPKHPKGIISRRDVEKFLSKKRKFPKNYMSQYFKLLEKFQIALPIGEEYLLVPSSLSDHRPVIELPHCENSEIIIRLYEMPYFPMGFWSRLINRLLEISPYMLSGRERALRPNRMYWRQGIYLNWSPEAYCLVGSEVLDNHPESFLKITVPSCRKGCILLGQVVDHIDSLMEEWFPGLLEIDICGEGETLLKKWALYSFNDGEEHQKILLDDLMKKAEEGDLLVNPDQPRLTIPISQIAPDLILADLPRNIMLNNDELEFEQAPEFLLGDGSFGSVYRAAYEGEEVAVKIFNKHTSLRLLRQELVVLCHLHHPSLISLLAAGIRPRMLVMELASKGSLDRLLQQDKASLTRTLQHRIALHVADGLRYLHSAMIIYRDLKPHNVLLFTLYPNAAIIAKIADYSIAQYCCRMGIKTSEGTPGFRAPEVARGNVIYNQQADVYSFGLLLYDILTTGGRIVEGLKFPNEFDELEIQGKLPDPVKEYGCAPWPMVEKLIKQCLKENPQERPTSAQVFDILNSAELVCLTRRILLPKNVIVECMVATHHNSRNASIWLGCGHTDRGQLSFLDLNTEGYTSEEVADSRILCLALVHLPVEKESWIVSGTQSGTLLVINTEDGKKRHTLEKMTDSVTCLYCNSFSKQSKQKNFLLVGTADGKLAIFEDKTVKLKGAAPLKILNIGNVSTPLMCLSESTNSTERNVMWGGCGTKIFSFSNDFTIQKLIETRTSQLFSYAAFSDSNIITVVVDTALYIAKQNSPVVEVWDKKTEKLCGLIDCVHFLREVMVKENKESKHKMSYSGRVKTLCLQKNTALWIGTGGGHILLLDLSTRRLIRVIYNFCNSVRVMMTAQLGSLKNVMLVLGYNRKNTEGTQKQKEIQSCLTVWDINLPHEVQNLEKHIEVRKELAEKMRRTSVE

Ki	Compound
1 nM	CCN1CCN(C(=O)c2cn(C)c3cc(Nc4ncc(C(F)(F)F)c(NC)n4)c(Cl)cc23)CC1 [Compound 32, (5-chloro-1-methyl-6-(4-(methylamino)-5-(trifluoromethyl)pyrimidin-2-ylamino)-1H-indol-3-yl)(4-ethylpiperazin-1-yl)methanone]
3 nM	CNc1nc(Nc2cc3c(cc2Cl)c(C(=O)N2C[C@@H]4C[C@H]2CO4)cn3C)ncc1C(F)(F)F [Compound 33, (1S,4S)-2-oxa-5-azabicyclo[2.2.1]heptan-5-yl(5-chloro-1-methyl-6-(4-(methylamino)-5-(trifluoromethyl)pyrimidin-2-ylamino)-1H-indol-3-yl)methanone]
